# According to patent US20030021772A1 (priority 2001, published 2003):
# Legend:
# [1] = tested on: effects of jet lag and sleep deprivation on human beings; experiment: ANAM Running Memory Test (vigilance, working memory) after overnight flight; assay type: in vivo; conditions: sublingual NADH 20 mg
# Experimental: (§1) The efficacy of a stabilized, sublingual form of reduced nicotinamide adenine dinucleotide (NADH, available commercially under the name ENADA® from Menuco Corp.) as a treatment for the effects of jet lag and sleep deprivation on human beings was examined. Healthy individuals were treated with NADH on the day following an overnight flight across North America, and the effects of NADH on their cognitive functioning were monitored. Although the sublingual form of NADH was used in these examples, any of the aforementioned forms of NADH could have been employed.
# (§2) The subjects in these examples were volunteers between 35 and 55 years of age, and were in good general physical health. […] In addition, subjects were required to have a normal day/night sleep schedule in their home time zone, and to have an Epworth Sleepiness Scale rating >8 at baseline (“baseline” being the testing in San Diego on the day of the flight) (see E. Hoddes et al., Quantification of Sleepiness: A New Approach, Psychophysiology (1973), 10(4):431-6). […]
# (§3) Subjects arrived at the San Diego, Calif. test site at 1200 hours on the day of the flight. […] Subjects were transported to the San Diego Airport and flown to Phoenix, Ariz. where they were shuttled to a conference room at a nearby hotel, provided dinner, and readministered the battery of tests at approximately 2030 hours. […]
# [2] = tested on: effects of jet lag and sleep deprivation on human beings; experiment: Kay Continuous Performance Test (KCPT), sustained attention and vigilance; assay type: in vivo; conditions: sublingual NADH 20 mg
# Experimental: as §1
# The subjects in these examples were volunteers between 35 and 55 years of age, and were in good general physical health. At a screening visit, subjects were urine tested to screen for the use of illicit drugs and pregnancy. […] In addition, subjects were required to have a normal day/night sleep schedule in their home time zone, and to have an Epworth Sleepiness Scale rating >8 at baseline (“baseline” being the testing in San Diego on the day of the flight) (see E. Hoddes et al., Quantification of Sleepiness: A New Approach, Psychophysiology (1973), 10(4):431-6). […]
# as §3
# (§4) Sublingual NADH 20 mg (4 tablets of sublingual ENADAlert™ 5 mg) or an equal number of identical placebo tablets were administered by study site personnel to the subjects upon their arrival at the Washington test site. At the test site, subjects' activities were carefully monitored to avoid dehydration, exposure to daylight (subjects were kept indoors) and hunger (they were provided breakfast and lunch, which all subjects ate). […]
# [3] = tested on: effects of jet lag and sleep deprivation on human beings; experiment: CogScreen Shifting Attention Test: Instruction Condition (working memory); assay type: in vivo; conditions: sublingual NADH 20 mg
# Experimental: as §1, §2, §3
# [4] = tested on: effects of jet lag and sleep deprivation on human beings; experiment: ANAM Math Test (working memory, math reasoning); assay type: in vivo; conditions: sublingual NADH 20 mg
# Experimental: as §1, §2, §3
# [5] = tested on: effects of jet lag and sleep deprivation on human beings; experiment: CCAB Mark Numbers Test (divided attention); assay type: in vivo; conditions: sublingual NADH 20 mg
# Experimental: as §1, §2, §3
# [6] = tested on: effects of jet lag and sleep deprivation on human beings; experiment: CogScreen Visual Sequence Comparison Test (visual perceptual speed and accuracy); assay type: in vivo; conditions: sublingual NADH 20 mg; PM test vs baseline; placebo 1.4; P=0.026
# Experimental: as §1, §2, §3
# [7] = tested on: effects of jet lag and sleep deprivation on human beings; experiment: CogScreen Matching to Sample Test; assay type: in vivo; conditions: sublingual NADH 20 mg; baseline to PM; placebo 1.0; P=0.078
# Experimental: as §1, §2, §3
# [8] = tested on: effects of jet lag and sleep deprivation on human beings; experiment: CogScreen Dual Task Test: Tracking Alone (psychomotor functioning); assay type: in vivo; conditions: sublingual NADH 20 mg, 31% at baseline
# Experimental: as §1, §2, §3
# [9] = tested on: effects of jet lag and sleep deprivation on human beings; experiment: Stanford Sleepiness Scale self-report; assay type: in vivo; conditions: sublingual NADH 20 mg
# Experimental: as §1
# The subjects in these examples were volunteers between 35 and 55 years of age, and were in good general physical health. At a screening visit, subjects were urine tested to screen for the use of illicit drugs and pregnancy. Cognitive screening with the Trail Making Test and Symbol Digit Modalities Test (see M. D. Lezak, Neuropsychological Assessment, 3rd ed., Oxford University Press (1995)) was used to exclude subjects with cognitive function test scores>1 SD below the mean for their age. Subjects were required to be gainfully employed, to have completed 14 years of formal education, and to have none of the following conditions: history of substance abuse, obesity (body mass index>30 kg/m^2), air sickness, pregnancy, nicotine use (within 6-months), mental health disorder (within 1 year), or sleep disorder. In addition, subjects were required to have a normal day/night sleep schedule in their home time zone, and to have an Epworth Sleepiness Scale rating >8 at baseline (“baseline” being the testing in San Diego on the day of the flight) (see E. Hoddes et al., Quantification of Sleepiness: A New Approach, Psychophysiology (1973), 10(4):431-6). Subjects were not permitted to be taking antidepressant medications, CNS stimulants, neuroleptics, Ginseng, Gingko Biloba, melatonin, phosphatylcholine, -acetyl carnatene, or other medications/nutritional supplements reported to enhance cognitive functioning within 90 days of the study. During the study, subjects were not permitted to use caffeine, alcohol or to take any prescription or over-the-counter medications known to enhance or depress CNS functioning.
# Subjects arrived at the San Diego, Calif. test site at 1200 hours on the day of the flight. The study protocol was reviewed with the subjects and they were then each issued a laptop computer (IBM Thinkpad Model 760) and familiarized with the tests and measures to be used in the study. At approximately 1500 hours subjects were administered the entire battery of tests to establish their baseline performance (“baseline”). Subjects also received training in the method for taking the sublingual tablets. Subjects were transported to the San Diego Airport and flown to Phoenix, Ariz. where they were shuttled to a conference room at a nearby hotel, provided dinner, and readministered the battery of tests at approximately 2030 hours. Subjects were shuttled back to the airport and boarded a flight to Baltimore, Md. at 2230 hours. Thirty minutes into the flight the subjects were instructed to complete a subset of the battery of tests. Subjects were permitted to sleep after completing the tests. The duration of the flight from Phoenix to Baltimore is approximately 4 hours. Furthermore, there is a 3-hour time difference between San Diego and Baltimore. The local time in Baltimore upon arrival was approximately 0600 hours. After breakfast, subjects were shuttled to the Washington, D.C. test site where they arrived at approximately 0800 hours.
# as §4
# [10] = tested on: effects of jet lag and sleep deprivation on human beings; experiment: Walter Reed Mood Scale self-report; assay type: in vivo; conditions: sublingual NADH 20 mg
# Experimental: as §1, §2, §3
# human beings = experiment: Adverse effects (headaches) during the jet lag study; assay type: in vivo; conditions: sublingual NADH 20 mg
# Experimental: as §1, §2, §3
# Stability at acidic pH = assay type: physicochemical; conditions: pHs below 7, as in the human stomach
# From the text: Therefore, when used in oral form, these substances must be coated with an acid-stable protective film so that they can survive the stomach environment for subsequent absorption by the intestine. Suitable acid-stable coatings are known in the art and can be applied by a conventional coating process after the active ingredients are formed into a tablet or capsule. Examples of suitable coatings are: cellulose acetate phthalate; polyvinylacetate phthalate; hydroxyl-propyl-methyl cellulose phthalate; methacryllic acid copolymers; fat-wax; shellac; zein; aqua-coating; and surerelease. Another possibility for the coating is a solution of a phthalate and a lack dry substance in isopropanol. An example of a suitable lack dry substance is sold under the name […]™ by Rohm Pharma. Alternatively, a protein coating in an aqueous medium may be applied. However, a sugar-coating should not be used because it will destabilize NADH.
structure (smiles),measurement,setting,value
"NC(=O)C1=CN([C@@H]2O[C@H](COP(=O)(O)OP(=O)(O)OC[C@H]3O[C@@H](n4cnc5c(N)ncnc54)[C@H](O)[C@@H]3O)[C@@H](O)[C@H]2O)C=CC1 [NADH, reduced nicotinamide adenine dinucleotide]",mean accuracy on the Running Memory Test,"[1]; afternoon (PM) test, placebo 91%",96%
same,Running Memory accuracy,"[1]; stable across all three sessions (baseline, AM, PM), 14 subjects, Group x Session P=0.036, placebo dropped 95% to 91%",approximately 96%
same,subjects with normal baseline performance who made two or more errors on KCPT,"[2]; AM test, 90 min after dosing, placebo 44%",36%
same,subjects who had resumed a normal level of KCPT performance,"[2]; PM test, placebo 63%, P<0.08",86%
same,subjects with omission errors on the KCPT,"[2]; afternoon, placebo 37%",14%
same,more problems correctly completed per minute vs. baseline (Shifting Attention Test throughput),"[3]; AM test vs baseline, placebo 6.8, Group x Session P<0.05",13.2 problems per minute
same,Shifting Attention Test: Instruction Condition accuracy,"[3]; AM test, 92.5% at baseline, placebo 93% to 91%",95%
same,ANAM Math Test throughput improvement relative to baseline,"[4]; AM test, placebo 6%, Group x Session P<0.07",15%
same,ANAM Math Test throughput improvement relative to baseline,"[4]; PM test, placebo 4%",11%
same,increase of Mark Numbers Test Total Score,"[5]; PM test, placebo 19.2 points, P=0.011",77.5 points
same,"decrease of secondary task reaction time, Mark Numbers Test","[5]; baseline to AM, placebo increased by 0.44 seconds, P=0.016",0.15 s
same,more items correctly completed per minute vs baseline (Visual Sequence Comparison throughput),[6],5.4 items per minute
same,more correct responses per minute (Matching to Sample throughput),[7],4.9 correct responses per minute
same,subjects with tracking failures,"[8]; AM test, placebo 41%",33%
same,subjects with tracking failures,"[8]; PM test, placebo 29%, P<0.09",11%
same,subjects reporting an increase in sleepiness compared to baseline,"[9]; AM test session, placebo 62.5%",57.1%
same,subjects with Stanford Sleepiness Scale rating of 1 or 2,"[9]; AM test, 82% at baseline, placebo identical",35%
same,subjects with Stanford Sleepiness Scale rating of 3 or more,"[9]; AM test, placebo identical",65%
same,subjects no longer reporting an increase in sleepiness relative to baseline,"[9]; PM test session, placebo 25%",57.7%
same,number of subjects with Stanford Sleepiness Scale rating of 1 or 2,"[9]; PM test, 17 subjects, placebo four, p=0.07",eight
same,number of subjects with Stanford Sleepiness Scale rating of 3 or more,"[9]; PM test, 17 subjects, placebo thirteen",nine
same,subjects reporting no sleepiness,"[9]; afternoon test, with 11 additional subjects (n=46), placebo 18%, P<0.02",48%
same,"self-reported fatigue and activity level, difference between NADH and placebo groups",[10],no significant differences
same,adverse effects attributable to treatment,human beings,no adverse effects
same,stability at pHs below 7,Stability at acidic pH,very unstable
